Test results: patent EP4120837B1, “INHIBITORS OF CYTOKININ OXIDASE DERIVED FROM 2-(3-PHENYLUREIDO)BENZAMIDE, USE THEREOF AND PREPARATIONS CONTAINING THESE DERIVATIVES” (Univerzita Palackého v Olomouci, priority 2020, dated 2021)
Values joined by “and” are separate entries in the source; they are usually repeats but may differ in a detail not shown here. Equal values may be shown once. Read-outs that look alike come from different tables or passages of the source. One block for each compound: values may come before it.

Legend:
barley = test: Field trial, seed yield of barley; assay type: in vivo; settings: for Yield (%): control = 100 %
Protocol: The effect of compound 24 on seed yield of barley and its phenotype was investigated in a field trials. All field experiments were performed according to Good agricultural practices, ie. six areas of 10 m^2 were used for one variant. Furthermore, the crop was not treated with any other growth regulator (substance 24 only) or fungicide. Compound 24 was applied to seeds at a concentration of 10 µM before sowing. In 2016 barley seeds treated by this way were grown in the field and the yield of these plants was compared with the untreated control (Table 4).
In 2017, compound 24 was applied to barley leaves at a concentration of 5 µM (in a volume of 200 L per hectare) in two different growth phases - BBCH 21-23 and BBCH 51. […] Table 4. Application of substance 24 increases the seed yield of barley in field conditions

wheat = test: Field trial, seed yield of wheat; assay type: in vivo; settings: for Yield (%): control = 100 %
Protocol: Example 19. The application of compound 24 increases the seed yield of wheat in field conditions In 2017, the effect of the application of substance 24 on wheat yield in field conditions was investigated. The substance was again applied either to wheat seeds before sowing (= seed dressing with substance 24 at a concentration of 50 µM) or to leaves (= spraying with substance 24 at a concentration of 5 µM) in two different growth phases - BBCH 25 and BBCH 51. All field experiments were performed according to Good Agricultural Practice. […] Table 6. Application of compound 24 increases seed yield of wheat in field conditions

Arabidopsis thaliana [1] = test: Foliar application, life span and seed yield of Arabidopsis under drought stress; assay type: in vivo; settings: 0.01 µM foliar spray, reduced watering
Protocol: Young Arabidopsis thaliana plants grown in small pots in soil were sprayed with a 0.01 µM aqueous solution of substance 24 in phase of four true leaves (within 14-20 days after sowing). Control plants were sprayed with an aqueous solution of DMSO (c = 0.01% (v/v)) and silwet (c = 0.001% (v/v)). Control plants were further divided into watered plants and those with reduced watering (drought stressed). […] All plants were grown until the stage of their natural death. Control watered plants lived for an average of 85 days before dying spontaneously. Their seed yield in average was 141 (± 22) mg. Control plants with reduced watering lived only 61 days on average and the average yield was 95 (± 14) mg. Plants treated with substance 24 and with reduced watering lived for an average of 75 days and their average seed yield was 117 (± 16) mg. […] Table 3. Foliar application with compound 24 reduces Arabidopsis thaliana seed yield losses

Arabidopsis thaliana [2] = test: Foliar application, seed yield of Arabidopsis under optimal conditions; assay type: in vivo
Protocol: In our experiment, young Arabidopsis thaliana plants were grown in small pots in soil and they were sprayed with a 0.01 µM compound 24 (aq solution) in phase of 4 true leaves (about 14-20 days after sowing). Control plants were sprayed with an aqueous solution of DMSO (c = 0.01% (v/v)) and silwet (c = 0.001% (v/v)). Both treated (n = 25) and control plants (n = 25) were further grown under optimal conditions until their natural death. Subsequently, seeds from all plants were harvested and the yield was evaluated (Table 2). […] This means an increase in total seed yield of 21 %.
This means an increase in total seed yield of 17 %. Table 2. Foliar application of 24 increases seed yield of Arabidopsis thaliana

ZmCKX1 = molecular target: T1, ZmCKX1 (Zea mays, UniProt Q9T0N8); test: ZmCKX1 inhibition, PMS/MTT assay; assay type: biochemical, maize
T1 construct: made in house; host or cells: Yarrowia lipolytica
T1 sequence (Q9T0N8 19-534): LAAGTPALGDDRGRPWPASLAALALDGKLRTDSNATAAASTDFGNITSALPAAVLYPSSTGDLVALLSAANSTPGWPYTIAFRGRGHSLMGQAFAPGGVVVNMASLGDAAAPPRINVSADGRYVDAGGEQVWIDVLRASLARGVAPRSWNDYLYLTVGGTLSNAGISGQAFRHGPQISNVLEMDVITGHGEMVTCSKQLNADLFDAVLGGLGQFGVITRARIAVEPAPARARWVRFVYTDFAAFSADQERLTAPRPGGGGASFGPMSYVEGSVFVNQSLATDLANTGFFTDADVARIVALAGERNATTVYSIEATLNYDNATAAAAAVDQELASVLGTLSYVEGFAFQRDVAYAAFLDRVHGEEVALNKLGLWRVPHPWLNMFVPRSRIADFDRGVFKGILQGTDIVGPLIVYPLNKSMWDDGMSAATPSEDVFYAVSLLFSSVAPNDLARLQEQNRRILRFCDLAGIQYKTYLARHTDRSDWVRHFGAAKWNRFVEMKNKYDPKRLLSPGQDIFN
Protocol: The IC50 (concentration of a substance that causes 50% inhibition of the enzyme activity) was measured by PMS/MTT assay [phenazine methosulphate/3-(4,5-dimethylthiazol-2-yl)-2,5-diphenyltetrazolium bromide]. The assay was performed in 96-well microtiter plates. Each well contained a reaction mixture with a final concentration of: 0.1 M KH2PO4, pH 7.4, 1 mM MTT, 0.2 mM PMS, tested substance in a concentration range of 0.1 nM - 1 µM and 10 µM N^6-isopentenyladenine (iP) as a substrate. To this reaction mixture 100 µL of medium containing the active enzyme ZmCKX1 was added. The enzyme was produced by the yeast Yarrowia lipolytica and isolated according to the protocol (Kopečný D. et al., 2005, […] 87:1011-1022). The plates were incubated for 30 min at 37 °C and the enzymatic reaction was stopped by the addition of 25 µL of 35% acetic acid. Then, the absorbance at 578 nm was measured on a spectrophotometer, and the absorbance of the sample without the substrate was substracted as a reference value. The IC50 value was determined from the concentration-dependent curves in GraphPad Prism software. The values shown in Table 1 are the average of at least two measurements each performed in three repetitions. […] The substance 3,5DCl-Ph-U is 1-(3,5-dichlorophenyl)-3-phenylurea, which we have been prepared to compare its inhibitory activity with the compounds presented in the present invention. Addition of the amide group to the unsubstituted phenyl ring of this substance gives the compound 2AD-3,5DC, which has 42-fold better inhibitory activity with the ZmCKX1 enzyme than 3,5DCl-Ph-U. F-INCYDE ((2-fluoro-9H-purin-6-yl)-(3-methoxyphenyl)amine), CPPU (1-(2-chloropyridin-4-yl)-3-phenylurea), and DCPPU (1-(2,6-dichloropyridin-4-yl)-3-phenylurea) are substances known in the prior art.

winter rapeseed = test: Field trial, seed yield of winter rapeseed; assay type: in vivo; settings: 1 µM foliar application; for Yield (%): 300 L per hectare, control = 100 %; for weight of one thousand seeds: control 5.38 g
Protocol: In 2018, the effect of foliar application of substance 24 (concentration 1 µM in a volume of 300 L per hectare) on the yield of winter rapeseed was investigated in field conditions. The field trials were again performed according to Good Agricultural Practice. Substance 24 was applied to plants in two different growth phases - BBCH 30 and BBCH 33-35. […] The weight of one thousand seeds in the treated plants was 5.6 g (BBCH 30) and 5.8 g (BBCH 33-35). This phenomenon also contributed to the increase in total seed yield. Table 5. Application of substance 24 increases the seed yield of winter rapeseed in field conditions

[3] = 10 µM seed application before sowing, 2016
[4] = 10 µM iP as substrate, pH 7.4, 30 min at 37 °C, average of at least two measurements, read-out: IC50 (µM) ZmCKX1

- IC50 (ZmCKX1; [4]): 0.001 µM
Structure (SMILES): COc1ccc(C(N)=O)c(NC(=O)Nc2cc(Cl)cc(Cl)c2)c1 [compound 24, 2-[3-(3,5-Dichlorophenyl)ureido]-4-methoxybenzamide]
- Yield (%) (barley; 5 µM foliar application, 200 L per hectare, BBCH 21-23, 2017): 106.3%
- Yield (%) (barley; 5 µM foliar application, 200 L per hectare, BBCH 51, 2017): 106.8%
- number of tillers, more than the control plants (barley; [3]): 14%
- Yield (%) (barley; [3]): 105.3%
- Yield (%) (wheat; 5 µM foliar application, BBCH 25, 2017): 105.9%
- Yield (%) (wheat; 5 µM foliar application, BBCH 51, 2017): 105.0%
- Yield (%) (wheat; 50 µM seed dressing before sowing, 2017): 104.0%
- tillers, more than the control plants (wheat; treated plants, mode of application not specified, 2017): about 7%
- Yield (mg), average seed yield (Arabidopsis thaliana [1]): 117 ± 16 mg
- life span (lived for an average of) (Arabidopsis thaliana [1]): 75 days
- Yield (mg), average seed yield (Arabidopsis thaliana [1]; listed as substance 24): 117 (± 16) mg
- Yield (%) (Arabidopsis thaliana [1]; watered control = 100 %): 83%
- Yield (mg), total seed yield per plant (Arabidopsis thaliana [2]; 0.01 µM aq solution sprayed in phase of 4 true leaves, n = 25, experiment and its repeat): 148 (± 17) mg and 135 (± 13) mg and 148 ± 17 mg and 135 ± 13 mg
- seeds per silique (Arabidopsis thaliana [2]; 0.01 µM foliar spray, average): 50 (± 5) and 52 (± 7)
- Yield (%) (Arabidopsis thaliana [2]; 0.01 µM foliar spray, control = 100 %): 121% and 117%
- Yield (%) (winter rapeseed; BBCH 30, 2018): 106.2%
- Yield (%) (winter rapeseed; BBCH 33-35, 2018): 108.8%
- weight of one thousand seeds (winter rapeseed; BBCH 30): 5.6 g
- weight of one thousand seeds (winter rapeseed; BBCH 33-35): 5.8 g

- IC50 (ZmCKX1; [4]): 0.004 µM
Structure (SMILES): CCCNC(=O)c1ccc(OC)cc1NC(=O)Nc1cc(Cl)cc(Cl)c1 [compound 43, 2-[3-(3,5-dichlorophenyl)ureido]-4-methoxy-N-propylbenzamide]

- IC50 (ZmCKX1; [4]): 0.074 µM
Structure (SMILES): NNC(=O)c1ccccc1NC(=O)Nc1cc(Cl)cc(Cl)c1 [compound 44, 1-(3,5-dichlorophenyl)-3-(2-hydrazinocarbonylphenyl)-urea]

- IC50 (ZmCKX1; [4]): 0.014 µM
Structure (SMILES): CNC(=O)c1ccc(Cl)cc1NC(=O)Nc1cc(Cl)cc(Cl)c1 [compound 31, 4-chloro-2-[3-(3,5-dichlorophenyl)ureido]-N-methylbenzamide]

- IC50 (ZmCKX1; [4]): 0.03 µM
Structure (SMILES): CCCNC(=O)c1ccccc1NC(=O)Nc1cc(Cl)cc(Cl)c1 [compound 41, 2-[3-(3,5-dichlorophenyl)ureido]-N-propylbenzamide]

- IC50 (ZmCKX1; [4]): 0.006 µM
Structure (SMILES): CNC(=O)c1ccc(OC)cc1NC(=O)Nc1cccc(Cl)c1 [compound 33, 2-[3-(3-chlorophenyl)ureido]-4-methoxy-N-methylbenzamide]

- IC50 (ZmCKX1; [4]): 0.008 µM
Structure (SMILES): NCCNC(=O)c1ccc(OC(F)(F)F)cc1NC(=O)Nc1cc(Cl)cc(Cl)c1 [compound 57, 2-[3-(3,5-dichlorophenyl)ureido]-4-trifluoromethoxy-N-(2-amino-ethyl)benzamide]

- IC50 (ZmCKX1; [4]): 0.021 µM
Structure (SMILES): CCNC(=O)c1ccc(OC)cc1NC(=O)Nc1cccc(Cl)c1 [compound 36, 2-[3-(3-chlorophenyl)ureido]-4-methoxy-N-ethylbenzamide]

Second part, the compound before the results:

Structure (SMILES): Cc1cc(Cl)cc(NC(=O)Nc2ccccc2C(N)=O)c1 [compound 10, 2-[3-(3-chloro-5-methylphenyl)ureido]benzamide]
- IC50 (ZmCKX1; [4]): 0.07 µM

Structure (SMILES): CCCNC(=O)c1ccc(Cl)cc1NC(=O)Nc1cc(F)cc(F)c1 [compound 42, 4-chloro-2-[3-(3,5-difluorophenyl)ureido]-N-propylbenzamide]
- IC50 (ZmCKX1; read-out: IC50 (µM) ZmCKX1, 10 µM iP as substrate, pH 7.4, 30 min at 37 °C, average of at least two measurements): 0.022 µM

Structure (SMILES): NCCNC(=O)c1ccc(Br)cc1NC(=O)Nc1cc(Cl)cc(Cl)c1 [compound 55, N-(2-Aminoethyl)-4-bromo-2-[3-(3,5-dichlorophenyl)ureido]benzamide]
- IC50 (ZmCKX1): 0.01 µM

Structure (SMILES): NC(=O)c1ccc(Cl)cc1NC(=O)Nc1cccc(Cl)c1 [compound 15, 4-chloro-2-[3-(3-chlorophenyl)ureido]benzamide]
- IC50 (ZmCKX1; [4]): 0.035 µM

Structure (SMILES): O=C(Nc1ccccc1)Nc1cc(Cl)nc(Cl)c1 [DCPPU, 1-(2,6-dichloropyridin-4-yl)-3-phenylurea, reference compound]
- IC50 (ZmCKX1; [4]): 4.5 µM

Structure (SMILES): NC(=O)c1ccc(F)cc1NC(=O)Nc1cccc(Cl)c1 [compound 12, 2-[3-(3-chlorophenyl)ureido]-4-fluorobenzamide]
- IC50 (ZmCKX1): 0.09 µM

Structure (SMILES): NC(=O)c1ccccc1NC(=O)Nc1cccc(Br)c1 [compound 2, 2-[3-(3-bromophenyl)ureido]benzamide]
- IC50 (ZmCKX1): 0.34 µM
